# Legend:
# MDA-MB-468 = assay: NCI-60 anticancer screen (SRB; single dose and five doses); assay type: cell-based, human
# How it was run: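 NCI panel of about 60 human tumor cell lines treated with compound at a single concentration (10μM) for 48 h. Growth measured by SRB protein staining and expressed as percent growth of treated versus untreated control cells.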
# OVCAR-3 = assay: cells; conditions: Homo sapiens
# HL-60(TB) = assay: NCI-60 anticancer screen (SRB; single dose and five doses); conditions: Homo sapiens
# MOLT-4 = assay: as above; conditions: Homo sapiens
# A549/ATCC = assay: as above; conditions: Homo sapiens
# NCI-H226 = assay: as above; conditions: Homo sapiens
# NCI-H322M = assay: as above; conditions: Homo sapiens
# NCI-H460 = assay: as above; conditions: Homo sapiens
# NCI-H522 = assay: as above; conditions: Homo sapiens
# COLO 205 = assay: as above; conditions: Homo sapiens
# HCT-15 = assay: as above; conditions: Homo sapiens
# SW-620 = assay: as above; conditions: Homo sapiens
# SF-268 = assay: as above; conditions: Homo sapiens
# SNB-75 = assay: as above
# MALME-3M = assay: as above; conditions: Homo sapiens
# M14 = assay: as above; conditions: Homo sapiens
# SK-MEL-2 = assay: as above; conditions: Homo sapiens
# UACC-257 = assay: as above; conditions: Homo sapiens
# 786-0 = assay: as above; conditions: Homo sapiens
# A498 = assay: as above; conditions: Homo sapiens
# ACHN = assay: as above; conditions: Homo sapiens
# RXF 393 = assay: as above; conditions: Homo sapiens
# SN12C = assay: as above; conditions: Homo sapiens
# PC-3 = assay: as above; conditions: Homo sapiens
# BT-549 = assay: as above; conditions: Homo sapiens
# [1] = 48 h, read-out: Growth Percentage
smiles,measurement,setting,value
"Cc1[nH]c(=S)sc1C(=O)/C=C/c1ccc(Cl)cc1 [2f, (E)-3-(4-Chlorophenyl)-1-(4-Methyl-2-Thioxo-2,3-Dihydrothiazol-5-yl)Prop-2-En-1-One]",activity at 10 µM,"MDA-MB-468; Homo sapiens, 48 h, MDA-MB-468, dose of 10 μM, read-out: Growth Percentage",-21.2%
same,IC50,"MDA-MB-468; Homo sapiens, MDA-MB-468, MDA-MB-468, Breast Cancer, five dose",12 µM
same,IC50,"MDA-MB-468; Homo sapiens, MDA-MB-468, MDA-MB-468, five doses",2.51 µM
same,GI50,"MDA-MB-468; Homo sapiens, MDA-MB-468, Breast Cancer, five dose",2.51 µM
same,CC50,"MDA-MB-468; Homo sapiens, MDA-MB-468, Breast Cancer, five dose, read-out: LC50 (the source's name)",30.2 µM
same,TGI,"MDA-MB-468; MDA-MB-468, Breast Cancer, five dose",8.32 µM
same,GI50,OVCAR-3; OVCAR-3,2.82 µM
same,activity at 10 µM,"OVCAR-3; OVCAR-3, 48 h, read-out: Growth Percentage",-24.2%
same,IC50,"OVCAR-3; OVCAR-3, OVCAR-3, five doses",2.82 µM
same,IC50,"OVCAR-3; OVCAR-3, five-dose, Ovarian Cancer OVCAR-3",6.46 µM
same,CC50,"OVCAR-3; OVCAR-3, read-out: LC50",33.1 µM
same,IC (TGI),"OVCAR-3; OVCAR-3, read-out: TGI",10.7 µM
same,GI50,HL-60(TB); HL-60,3.55 µM
same,IC50,HL-60(TB); HL-60,5.89 µM
same,activity at 10 µM,"HL-60(TB); HL-60, 48 h, read-out: Growth Percentage",-0.98%
same,CC50,"HL-60(TB); HL-60, read-out: LC50",> 100 µM
same,IC (TGI),"HL-60(TB); HL-60, read-out: TGI",38 µM
same,GI50,MOLT-4; MOLT-4,14.5 µM
same,IC50,MOLT-4; MOLT-4,24.6 µM
same,activity at 10 µM,"MOLT-4; MOLT-4, 48 h, read-out: Growth Percentage",10.2%
same,CC50,"MOLT-4; MOLT-4, read-out: LC50",> 100 µM
same,IC (TGI),"MOLT-4; MOLT-4, read-out: TGI",79.4 µM
same,GI50,A549/ATCC; A549,10.7 µM
same,IC50,A549/ATCC; A549,16.2 µM
same,activity at 10 µM,"A549/ATCC; A549, 48 h, read-out: Growth Percentage",61.1%
same,CC50,"A549/ATCC; A549, read-out: LC50",52.5 µM
same,IC (TGI),"A549/ATCC; A549, read-out: TGI",24 µM
same,GI50,NCI-H226; NCI-H226,13.8 µM
same,IC50,NCI-H226; NCI-H226,36.3 µM
same,activity at 10 µM,"NCI-H226; NCI-H226, 48 h, read-out: Growth Percentage",20.5%
same,CC50,"NCI-H226; NCI-H226, read-out: LC50",> 100 µM
same,IC (TGI),"NCI-H226; NCI-H226, read-out: TGI",38 µM
same,GI50,NCI-H322M,10.2 µM
same,IC50,NCI-H322M,19.9 µM
same,CC50,NCI-H322M; read-out: LC50,51.3 µM
same,IC (TGI),NCI-H322M; read-out: TGI,22.9 µM
same,GI50,NCI-H460; NCI-H460,12 µM
same,IC50,NCI-H460; NCI-H460,19.1 µM
same,activity at 10 µM,"NCI-H460; NCI-H460, 48 h, read-out: Growth Percentage",82.6%
same,CC50,"NCI-H460; NCI-H460, read-out: LC50",69.2 µM
same,IC (TGI),"NCI-H460; NCI-H460, read-out: TGI",28.8 µM
same,GI50,NCI-H522; NCI-H522,11.8 µM
same,IC50,NCI-H522; NCI-H522,22.4 µM
same,activity at 10 µM,"NCI-H522; NCI-H522, 48 h, read-out: Growth Percentage",13.5%
same,CC50,"NCI-H522; NCI-H522, read-out: LC50",52.5 µM
same,IC (TGI),"NCI-H522; NCI-H522, read-out: TGI",25.1 µM
same,GI50,COLO 205; COLO 205,19.1 µM
same,IC50,COLO 205; COLO 205,33.9 µM
same,activity at 10 µM,"COLO 205; COLO 205, 48 h, read-out: Growth Percentage",78.2%
same,CC50,"COLO 205; COLO 205, read-out: LC50",74.1 µM
same,IC (TGI),"COLO 205; COLO 205, read-out: TGI",38 µM
same,GI50,HCT-15; HCT-15,4.07 µM
same,IC50,HCT-15; HCT-15,5.37 µM
same,activity at 10 µM,"HCT-15; HCT-15, 48 h, read-out: Growth Percentage",-19.8%
same,CC50,"HCT-15; HCT-15, read-out: LC50",49 µM
same,IC (TGI),"HCT-15; HCT-15, read-out: TGI",16.6 µM
same,GI50,SW-620; SW-620,3.09 µM
same,IC50,SW-620; SW-620,4.37 µM
same,activity at 10 µM,"SW-620; SW-620, 48 h, read-out: Growth Percentage",8.02%
same,CC50,"SW-620; SW-620, read-out: LC50",38.9 µM
same,IC (TGI),"SW-620; SW-620, read-out: TGI",11.2 µM
same,GI50,SF-268; SF-268,12 µM
same,IC50,SF-268; SF-268,24.6 µM
same,activity at 10 µM,"SF-268; SF-268, 48 h, read-out: Growth Percentage",67.9%
same,CC50,"SF-268; SF-268, read-out: LC50",64.6 µM
same,IC (TGI),"SF-268; SF-268, read-out: TGI",28.2 µM
same,GI50,"SNB-75; Homo sapiens, SNB-75",2.19 µM
same,IC50,"SNB-75; Homo sapiens, SNB-75",8.51 µM
same,CC50,"SNB-75; Homo sapiens, SNB-75, read-out: LC50",28.8 µM
same,TGI,"SNB-75; five-dose, CNS Cancer SNB-75",6.76 µM
same,GI50,MALME-3M,14.5 µM
same,IC50,MALME-3M,30.9 µM
same,CC50,MALME-3M; read-out: LC50,75.9 µM
same,IC (TGI),MALME-3M; read-out: TGI,33.1 µM
same,GI50,M14; M14,14.1 µM
same,IC50,M14; M14,24.6 µM
same,activity at 10 µM,"M14; M14, 48 h, read-out: Growth Percentage",34.4%
same,IC (TGI),"M14; M14, read-out: TGI",32.4 µM
same,GI50,SK-MEL-2; SK-MEL-2,13.8 µM
same,IC50,SK-MEL-2; SK-MEL-2,27.5 µM
same,activity at 10 µM,"SK-MEL-2; SK-MEL-2, 48 h, read-out: Growth Percentage",58.4%
same,CC50,"SK-MEL-2; SK-MEL-2, read-out: LC50",56.2 µM
same,IC (TGI),"SK-MEL-2; SK-MEL-2, read-out: TGI",28.2 µM
same,GI50,UACC-257; UACC-257,13.8 µM
same,IC50,UACC-257; UACC-257,26.9 µM
same,activity at 10 µM,"UACC-257; UACC-257, 48 h, read-out: Growth Percentage",66.8%
same,CC50,"UACC-257; UACC-257, read-out: LC50",56.2 µM
same,IC (TGI),"UACC-257; UACC-257, read-out: TGI",27.5 µM
same,GI50,786-0; 786-0,4.68 µM
same,IC50,786-0; 786-0,7.76 µM
same,activity at 10 µM,"786-0; 786-0, 48 h, read-out: Growth Percentage",16.6%
same,CC50,"786-0; 786-0, read-out: LC50",58.9 µM
same,IC (TGI),"786-0; 786-0, read-out: TGI",20.4 µM
same,GI50,A498; A498,15.8 µM
same,IC50,A498; A498,30.9 µM
same,activity at 10 µM,"A498; A498, 48 h, read-out: Growth Percentage, A498, dose of 10 μM",106%
same,CC50,"A498; A498, read-out: LC50",56.2 µM
same,IC (TGI),"A498; A498, read-out: TGI",29.5 µM
same,GI50,ACHN,13.8 µM
same,IC50,ACHN,24 µM
same,activity at 10 µM,ACHN; [1],34.6%
same,CC50,ACHN; read-out: LC50,51.3 µM
same,IC (TGI),ACHN; read-out: TGI,26.9 µM
same,GI50,RXF 393; RXF 393,5.89 µM
same,IC50,RXF 393; RXF 393,24 µM
same,activity at 10 µM,"RXF 393; RXF 393, 48 h, read-out: Growth Percentage",9.78%
same,CC50,"RXF 393; RXF 393, read-out: LC50",49 µM
same,IC (TGI),"RXF 393; RXF 393, read-out: TGI",19.9 µM
same,GI50,SN12C,4.9 µM
same,IC50,SN12C,10.7 µM
same,activity at 10 µM,SN12C; [1],4.62%
same,CC50,SN12C; read-out: LC50,43.6 µM
same,IC (TGI),SN12C; read-out: TGI,18.2 µM
same,GI50,PC-3; PC-3,5.37 µM
same,IC50,PC-3; PC-3,9.77 µM
same,CC50,"PC-3; PC-3, read-out: LC50",81.3 µM
same,IC (TGI),"PC-3; PC-3, read-out: TGI",23.4 µM
same,GI50,BT-549; BT-549,5.75 µM
same,IC50,BT-549; BT-549,20.9 µM
same,activity at 10 µM,"BT-549; BT-549, 48 h, read-out: Growth Percentage",-14.4%
same,IC (TGI),"BT-549; BT-549, read-out: TGI",20.4 µM

# Reference: article PMC11435058, “Synthesis of New Thiazole-Privileged Chalcones as Tubulin Polymerization Inhibitors with Potential Anticancer Activities” (Pharmaceuticals, 2024)
